Tested on: Male Sprague-Dawley rats
Assay: Locomotor activity
Type: in vivo, rat
Conditions: for Locomotor Activity Day 1, mean distance traveled: 60-min session

COC(=O)C(c1ccccc1)C1CCCCN1 (stereo not drawn) [MPD, Methylphenidate]
time course of locomotor activity compared to saline-treated rats (Day 1, EC rats, MPD 3 mg/kg): significantly greater during the 25–60-min intervals | time course of locomotor activity compared to saline-treated rats (Day 1, EC rats, MPD 10 mg/kg): significantly greater during the 20–60-min intervals | time course of locomotor activity compared to saline-treated rats (Day 1, IC rats, MPD 3 mg/kg): significantly greater during the 30-, 50- and 60-min intervals | time course of locomotor activity compared to saline-treated rats (Day 1, IC rats, MPD 10 mg/kg): significantly greater during the 15–60-min intervals | time course of locomotor activity compared to saline-treated rats (Day 1, SC rats, MPD 3 mg/kg): more active than saline-treated SC rats during the 30–60-min time intervals | time course of locomotor activity compared to saline-treated rats (Day 1, SC rats, MPD 10 mg/kg): more active than saline-treated SC rats during the 15–60-min time intervals | time course of locomotor activity compared to saline-treated rats (Day 10, EC rats, MPD 3 mg/kg): only IC rats treated with 3 mg/kg of MPD displayed greater activity | time course of locomotor activity compared to saline-treated rats (Day 10, EC rats, MPD 10 mg/kg): more active than the saline controls during each time interval | time course of locomotor activity compared to saline-treated rats (Day 10, IC rats, MPD 3 mg/kg): significantly greater activity in IC rats relative to saline controls beginning at the 30-min time interval | time course of locomotor activity compared to saline-treated rats (Day 10, IC rats, MPD 10 mg/kg): more active than the saline controls during each time interval except the 5-min interval in the IC group | time course of locomotor activity compared to saline-treated rats (Day 10, SC rats, MPD 3 mg/kg): more active than saline-treated SC rats during the 10–60-min time intervals | time course of locomotor activity compared to saline-treated rats (Day 10, SC rats, MPD 10 mg/kg): more active than saline-treated SC rats during the 10–60-min time intervals | total locomotor activity across Days 1–10 compared with Day 1 (EC rats, MPD 3 mg/kg once daily): greater locomotor activity on Day 2 than on Day 1 | Locomotor Activity Day 10, mean distance traveled (EC rats, MPD 3 mg/kg s.c. once daily): 4438 cm | Locomotor Activity Day 1, mean distance traveled (EC rats, MPD 3 mg/kg s.c.): 9482 cm | total locomotor activity across Days 1–10 compared with Day 1 (EC rats, MPD 10 mg/kg once daily): greater locomotor activity on Days 4, 5 and 10 than on Day 1 | Locomotor Activity Day 10, mean distance traveled (EC rats, MPD 10 mg/kg s.c. once daily): 29196 cm | Locomotor Activity Day 1, mean distance traveled (EC rats, MPD 10 mg/kg s.c.): 15665 cm | total locomotor activity across Days 1–10 compared with Day 1 (IC rats, MPD 3 mg/kg once daily): greater locomotor activity on Days 2–9 than on Day 1 | Locomotor Activity Day 10, mean distance traveled (IC rats, MPD 3 mg/kg s.c. once daily): 13980 cm | Locomotor Activity Day 1, mean distance traveled (IC rats, MPD 3 mg/kg s.c.): 9775 cm | total locomotor activity across Days 1–10 compared with Day 1 (IC rats, MPD 10 mg/kg once daily): no significant main effect of Day | Locomotor Activity Day 10, mean distance traveled (IC rats, MPD 10 mg/kg s.c. once daily): 28531 cm | Locomotor Activity Day 1, mean distance traveled (IC rats, MPD 10 mg/kg s.c.): 20653 cm | total locomotor activity across Days 1–10 compared with Day 1 (SC rats, MPD 3 mg/kg once daily): activity on Days 2–10 was greater than activity on Day 1 | Locomotor Activity Day 10, mean distance traveled (SC rats, MPD 3 mg/kg s.c. once daily): 23675 cm | Locomotor Activity Day 1, mean distance traveled (SC rats, MPD 3 mg/kg s.c.): 15020 cm | total locomotor activity across Days 1–10 compared with Day 1 (SC rats, MPD 10 mg/kg once daily): locomotor activity on Days 3, 5–7 and 10 was greater than that on Day 1 | Locomotor Activity Day 10, mean distance traveled (SC rats, MPD 10 mg/kg s.c. once daily): 31954 cm | Locomotor Activity Day 1, mean distance traveled (SC rats, MPD 10 mg/kg s.c.): 22406 cm

Source: article PMC3062741 (Behavioural brain research, 2011)
